Entries after “also recorded” stand apart in the source; their conditions may differ. Where two headings read alike, the source gives them in different places.
How the values were obtained:
NRF2 = assay: qPCR analysis of NRF2-regulated genes; format: cell-based, human; conditions: for fold induction at 10 µM: Homo sapiens; for Potential NRF2 Activation (>=2 target genes induced, by >=1.5-fold): Assay 13(p)
In short: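 WI-38 cells treated with compound at 10 μM for 24 hrs, then processed by Cells-to-Ct for RNA isolation, RT and qPCR of NRF2-regulated genes (HMOX1, NQO1, GCLC, GSTM1). Expression normalized to B2M, PPIA and GAPDH; siRNA knockdown of FOXO3 or NRF2 (10 nM) preceded treatment in some runs.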

FOXO3 = FOXO3 siRNA knockdown: dependency for H2O2-resistance; format: cell-based, human
WI-38 cells = assay: Long-term effects on cell viability (5 days, ATP; morphology, PI imaging); format: cell-based; conditions: for Luminescence signal for ATP measurement, day-1 Average / Luminescence signal for ATP measurement, day-2 Average / Luminescence signal for ATP measurement, day-3 Average / Luminescence signal for ATP measurement, day-4 Average / Luminescence signal for ATP measurement, day-5 Average: n = 6, day-0 luminescence = 320956 ± 24708; for viability at 10 µM: Homo sapiens, WI-38, 120 h, read-out: ATP luminescence by day-5 normalized;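 on Luminescence signal for ATP measurement, day-2 Average: compounds at 10 µM with ATP read daily over 5 days of treatment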;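 on Luminescence signal for ATP measurement, day-3 Average: compounds at 10 µM with ATP read daily over 5 days of treatment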;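 on Luminescence signal for ATP measurement, day-4 Average: compounds at 10 µM with ATP read daily over 5 days of treatment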;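 on Luminescence signal for ATP measurement, day-5 Average: compounds at 10 µM with ATP read daily over 5 days of treatment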
[1] = 24 h, Assay 12(o), at 10 uM, qPCR, read-out: Induction of NRF2-regulated genes: GCLC normalized fold-change
[2] = 24 h, Assay 12(o), at 10 uM, qPCR, read-out: Induction of NRF2-regulated genes: GSTM1 normalized fold-change
[3] = 24 h, Assay 12(o), at 10 uM, qPCR, read-out: Induction of NRF2-regulated genes: HMOX1 normalized fold-change
[4] = rounded fold change, WI-38 cells, 10 μM, 24 hrs, read-out: Summary of effects on NRF2-regulated genes: GCLC
[5] = 10 μM, 24 hrs, WI-38 cells, qPCR, normalized to B2M, n = 4, read-out: GCLC expression, normalized fold change (NRF2-regulated gene)
[6] = WI-38 cells, 10 μM, 24 hrs, n=4, qPCR normalized by B2M, read-out: GCLC Normalized fold change
[7] = WI-38 cells, 10 μM, 24 hrs, n=4, qPCR normalized by B2M, read-out: GSTM1 Normalized fold change
[8] = WI-38 cells, 10 μM, 24 hrs, n=4, qPCR normalized by B2M, read-out: HMOX1 Normalized fold change
[9] = WI-38 cells, 10 μM, 24 hrs, n=4, qPCR normalized by B2M, read-out: NQO1 Normalized fold change
[10] = Batch 1, 10 μM, day-5, DMSO ctrl = 100.0%
[11] = 10 μM, 24 hrs, WI-38 cells, qPCR, normalized to B2M, n = 4
[12] = WI-38 cells, 10 μM, 24 hrs, n=4, qPCR normalized by B2M
[13] = rounded fold change, WI-38 cells, 10 μM, 24 hrs (RP29 for Gr-4D)
[14] = 24 h, Assay 12(o), at 10 uM, qPCR, read-out: Induction of NRF2-regulated genes: NQO1 normalized fold-change
[15] = rounded fold change, WI-38 cells, 10 μM, 24 hrs (RP11 for Gr-1D, RP29 for Gr-4D), read-out: Summary of effects on NRF2-regulated genes: HMOX1
[16] = rounded fold change, WI-38 cells, 10 μM, 24 hrs (RP29 for Gr-4D), read-out: Summary of effects on NRF2-regulated genes: NQO1
[17] = 10 μM, 24 hrs, WI-38, read-out: Expression of at least two NRF2 target genes
[18] = 10 μM, 24 hrs, WI-38 cells, qPCR, normalized to B2M, n = 4, read-out: HMOX1 expression, normalized fold change (NRF2-regulated gene)
[19] = 10 μM, 24 hrs, WI-38 cells, qPCR, normalized to B2M, n = 4, read-out: NQO1 expression, normalized fold change (NRF2-regulated gene)

SMILES | F = Potential NRF2 Activation (NRF2; 2-point score) | fold induction at 10 µM (NRF2; [1]) | fold induction at 10 µM (NRF2; [2]) | fold induction at 10 µM (NRF2; [3]) | fold induction at 10 µM (NRF2; [4]) | fold induction at 10 µM (NRF2; [6]) | fold induction at 10 µM (NRF2; [7]) | fold induction at 10 µM (NRF2; [8]) | fold induction at 10 µM (NRF2; [9]) | F = Potential NRF2 Activation (NRF2; summary score) | I = FOXO3-dependency for H2O2-resistance (FOXO3; score) | I = FOXO3-dependency for H2O2-resistance (FOXO3; summary score) | Luminescence signal for ATP measurement, day-1 Average (WI-38 cells; Batch 1, 10 μM) | Luminescence signal for ATP measurement, day-2 Average (WI-38 cells; Batch 1, 10 μM) | Luminescence signal for ATP measurement, day-3 Average (WI-38 cells; Batch 1, 10 μM) | Luminescence signal for ATP measurement, day-4 Average (WI-38 cells; Batch 1, 10 μM) | Luminescence signal for ATP measurement, day-5 Average (WI-38 cells; Batch 1, 10 μM, day-5) | viability at 10 µM (WI-38 cells; [10]) [%] | O = Potential toxicity (WI-38 cells; human, 5 days, 10 μM) | Q = Potential toxicity (WI-38 cells; human, 5 days, 10 μM) | also measured
Cc1ccc(NC(=O)c2ccc([N+](=O)[O-])o2)cc1C [Gr-1F] | 0 | 1.35 | 1.28 | 0.82 | 1.62 | 1.62 | 1.72 | 1.09 | 1.11 | 0 | 0 | 0 | 383221 | 440655 | 446240 | 534298 | 600633 | 58.5 | 1 | 1 | fold induction at 10 µM (NRF2; [5]): 1.62; FOXO3-dependency for H2O2-resistance, at 10 uM (experiment 3) - with & without H2O2 (FOXO3; 10 uM, experiment 3, with & without H2O2): YES; FOXO3-dependency for H2O2-resistance (experiment 3) (FOXO3; 10 uM, with & without H2O2, FOXO3 knockdown in WI-38 cells, YES = resistance reduced by at least 50%, partial = 25% to 50%): YES
COc1cc2c(no[n+]2[O-])n2nnnc12 [O11] | 0 | – | – | – | – | – | – | – | – | 0 | 0 | 0 | 310373 | 412288 | 484520 | 642267 | 633963 | – | – | – | Induction of at least two NRF2-regulated genes (HMOX1, NQO1, GCLC, GSTM1) (NRF2; 10 μM, 24 hrs, WI-38): could induce expression of at least two genes; GSTM1 expression, normalized fold change (NRF2-regulated gene) (NRF2; [11]): GSTM1 1.30, fold; NQO1 expression, normalized fold change (NRF2-regulated gene) (NRF2; [11]): NQO1 2.03, fold; Induction of NRF2-regulated genes: GSTM1 normalized fold-change (NRF2; Assay 12(o), at 10 uM, qPCR): GSTM1 1.30, fold-change; Induction of NRF2-regulated genes: NQO1 normalized fold-change (NRF2; Assay 12(o), at 10 uM, qPCR): NQO1 2.03, fold-change; GCLC Normalized fold change (NRF2; [12]): 1.333 fold change; GSTM1 Normalized fold change (NRF2; [12]): 1.304 fold change; HMOX1 Normalized fold change (NRF2; [12]): 1.069 fold change; NQO1 Normalized fold change (NRF2; [12]): 2.027 fold change; Summary of effects on NRF2-regulated genes: GSTM1 (NRF2; [13]): 1.30,; Summary of effects on NRF2-regulated genes: NQO1 (NRF2; [13]): 2.03,; Long-term cell toxicity (cell number, morphology, PI-positive dead cells) (WI-38 cells; 10 μM, up to 5 days, no H2O2): reduced cell number substantially and increased the fraction of PI-positive dead cells; also recorded: less cells, and more cells scored positive for propidium iodide; ATP luminescence by day-5 normalized (WI-38 cells; [10]): 61.7%; Q = Potential toxicity (WI-38 cells; negative point, cultured human cells): 1; O = Potential toxicity (WI-38 cells; summary score): 1
O=C1NCCCc2cc(Cl)sc21 [O1] | 0 | – | – | – | – | 1.21 | 1.09 | 1.25 | 1.08 | 0 | 0 | 0 | 461478 | 722566 | 824266 | 1101026 | 977541 | 95.2 | 0 | 0 | –
COc1ccc(C(=O)/C=C/c2cccc(Cl)c2)c(OC)c1 [Gr-4C] | 2 | 2.51 | 1.63 | 89.5 | 2.51 | 2.51 | 1.63 | 89.5 | 5 | 2 | 0 | 0 | 413360 | 474171 | 485641 | 769380 | 813018 | 79.2 | 0 | 0 | Potential NRF2 Activation (>=2 target genes induced, by >=1.5-fold) (NRF2): YES; fold induction at 10 µM (NRF2; [14]): 5; fold induction at 10 µM (NRF2; [15]): 89.5; fold induction at 10 µM (NRF2; rounded fold change, WI-38 cells, 10 μM, 24 hrs (RP29 for Gr-4D), read-out: Summary of effects on NRF2-regulated genes: GSTM1): 1.63; fold induction at 10 µM (NRF2; [16]): 5; fold induction at 10 µM (NRF2; [17]): > 1.5; fold induction at 10 µM (NRF2; [5]): 2.51; fold induction at 10 µM (NRF2; 10 μM, 24 hrs, WI-38 cells, qPCR, normalized to B2M, n = 4, read-out: GSTM1 expression, normalized fold change (NRF2-regulated gene)): 1.63; fold induction at 10 µM (NRF2; [18]): 89.5; fold induction at 10 µM (NRF2; [19]): 5
CCc1ccc(Oc2nc3ccccn3c(=O)c2/C=C(\C#N)C(=O)NC2CCCCC2)cc1 [Gr-5A] | 2 | – | – | 2.06 | – | 0.919 | 1.15 | 2.06 | 1.55 | 2 | 0 | 0 | 527000 | 728148 | 837593 | 1074220 | 1082445 | 105 | 0 | 0 | Potential NRF2 Activation (>=2 target genes induced, by >=1.5-fold) (NRF2): YES; fold induction at 10 µM (NRF2; [14]): 1.55; fold induction at 10 µM (NRF2; [15]): 2.06; fold induction at 10 µM (NRF2; [16]): 1.55; fold induction at 10 µM (NRF2; [17]): > 1.5; fold induction at 10 µM (NRF2; [18]): 2.06; fold induction at 10 µM (NRF2; [19]): 1.55
